Where “and” joins values, the source holds several entries; their conditions need not be identical. Equal values may be shown once. Read-outs that look alike come from different tables or passages of the source.
Assays:
Experiment in all cases: cell-based
hNav1.7 [1] = molecular target: T1, hNav1.7 (Homo sapiens, UniProt Q15858); settings: IonWorks Quattro; read-out: IC50 Nav1.7
hNav1.5 [2] = molecular target: T2, hNav1.5 (Homo sapiens, UniProt Q14524); settings: IonWorks Quattro; read-out: IC50 Nav1.5
hNav1.4 [3] = molecular target: T3, hNav1.4 (Homo sapiens, UniProt P35499); settings: for IC50: IonWorks Quattro, read-out: IC50 Nav1.4; for Nav1.4/Nav1.7: ratio of IonWorks Quattro IC50 values
hNav1.3 = hNav1.3 (Homo sapiens, UniProt Q9NY46); settings: IonWorks Quattro; read-out: IC50 Nav1.3
hNav1.7 [4] = molecular target: T1, hNav1.7; assay type: cell-based; settings: PatchXpress; * = at high concentrations compound would wash off slowly or not at all; read-out: PX hNav1.7 Tonic IC50
hNav1.4 [5] = molecular target: T3, hNav1.4; settings: for IC50: PatchXpress, * = at high concentrations compound would wash off slowly or not at all, read-out: PX hNav1.4 Tonic IC50; for Nav1.4/Nav1.7: ratio of PX IC50 values
hNav1.5 [6] = molecular target: T2, hNav1.5; settings: PatchXpress; * = at high concentrations compound would wash off slowly or not at all; read-out: PX hNav1.5 Tonic IC50

T2 sequence (Q14524 whole entry): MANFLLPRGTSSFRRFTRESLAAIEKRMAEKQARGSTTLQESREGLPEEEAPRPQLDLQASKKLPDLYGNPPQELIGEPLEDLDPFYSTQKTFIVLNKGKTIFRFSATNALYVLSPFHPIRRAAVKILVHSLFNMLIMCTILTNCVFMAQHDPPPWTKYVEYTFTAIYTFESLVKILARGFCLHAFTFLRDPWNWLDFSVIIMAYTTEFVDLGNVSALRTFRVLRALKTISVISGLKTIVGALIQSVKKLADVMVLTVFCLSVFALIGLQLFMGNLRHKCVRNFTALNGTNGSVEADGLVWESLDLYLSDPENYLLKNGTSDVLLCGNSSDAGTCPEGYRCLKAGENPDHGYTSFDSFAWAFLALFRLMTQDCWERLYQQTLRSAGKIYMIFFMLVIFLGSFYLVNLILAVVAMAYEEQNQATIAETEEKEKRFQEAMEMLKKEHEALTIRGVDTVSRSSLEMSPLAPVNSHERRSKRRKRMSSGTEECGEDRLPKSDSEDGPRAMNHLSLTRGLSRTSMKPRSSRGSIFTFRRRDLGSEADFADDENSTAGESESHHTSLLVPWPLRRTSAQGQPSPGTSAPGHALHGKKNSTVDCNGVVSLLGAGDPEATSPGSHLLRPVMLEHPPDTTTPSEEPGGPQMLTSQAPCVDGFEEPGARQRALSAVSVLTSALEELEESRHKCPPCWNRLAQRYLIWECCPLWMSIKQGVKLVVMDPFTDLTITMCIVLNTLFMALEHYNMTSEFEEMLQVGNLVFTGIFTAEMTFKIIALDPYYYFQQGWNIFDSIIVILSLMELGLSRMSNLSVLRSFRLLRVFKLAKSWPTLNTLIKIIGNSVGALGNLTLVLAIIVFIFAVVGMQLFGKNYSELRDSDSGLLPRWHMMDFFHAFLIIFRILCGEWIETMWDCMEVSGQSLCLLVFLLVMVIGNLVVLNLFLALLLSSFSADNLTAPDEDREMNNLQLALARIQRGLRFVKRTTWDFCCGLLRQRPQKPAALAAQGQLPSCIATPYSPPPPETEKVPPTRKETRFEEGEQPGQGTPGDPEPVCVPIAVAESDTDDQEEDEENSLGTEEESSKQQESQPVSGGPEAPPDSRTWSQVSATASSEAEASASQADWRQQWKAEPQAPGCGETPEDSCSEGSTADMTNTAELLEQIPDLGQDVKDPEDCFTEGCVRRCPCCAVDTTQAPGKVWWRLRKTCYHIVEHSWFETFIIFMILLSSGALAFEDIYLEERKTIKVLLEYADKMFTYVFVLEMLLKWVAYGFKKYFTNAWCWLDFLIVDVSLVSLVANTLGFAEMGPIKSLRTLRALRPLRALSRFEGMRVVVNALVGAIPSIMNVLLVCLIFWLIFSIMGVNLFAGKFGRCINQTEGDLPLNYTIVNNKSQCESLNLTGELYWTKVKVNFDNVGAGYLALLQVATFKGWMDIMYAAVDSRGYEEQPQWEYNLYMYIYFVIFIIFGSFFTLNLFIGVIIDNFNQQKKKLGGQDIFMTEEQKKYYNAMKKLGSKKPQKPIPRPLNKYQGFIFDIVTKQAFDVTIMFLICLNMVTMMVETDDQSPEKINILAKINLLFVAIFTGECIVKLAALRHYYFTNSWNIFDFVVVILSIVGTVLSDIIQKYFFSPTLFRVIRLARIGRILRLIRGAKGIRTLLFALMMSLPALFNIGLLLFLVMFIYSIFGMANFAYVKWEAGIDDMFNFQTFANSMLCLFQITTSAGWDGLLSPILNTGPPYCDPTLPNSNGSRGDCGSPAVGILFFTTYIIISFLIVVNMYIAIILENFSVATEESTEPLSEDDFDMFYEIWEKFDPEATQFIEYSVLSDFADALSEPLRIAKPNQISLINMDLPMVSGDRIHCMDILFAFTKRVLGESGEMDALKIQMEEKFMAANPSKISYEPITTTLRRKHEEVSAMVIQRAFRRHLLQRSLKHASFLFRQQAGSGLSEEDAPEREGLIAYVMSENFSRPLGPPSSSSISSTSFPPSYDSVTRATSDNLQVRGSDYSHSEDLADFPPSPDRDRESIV
T3 sequence (P35499 whole entry): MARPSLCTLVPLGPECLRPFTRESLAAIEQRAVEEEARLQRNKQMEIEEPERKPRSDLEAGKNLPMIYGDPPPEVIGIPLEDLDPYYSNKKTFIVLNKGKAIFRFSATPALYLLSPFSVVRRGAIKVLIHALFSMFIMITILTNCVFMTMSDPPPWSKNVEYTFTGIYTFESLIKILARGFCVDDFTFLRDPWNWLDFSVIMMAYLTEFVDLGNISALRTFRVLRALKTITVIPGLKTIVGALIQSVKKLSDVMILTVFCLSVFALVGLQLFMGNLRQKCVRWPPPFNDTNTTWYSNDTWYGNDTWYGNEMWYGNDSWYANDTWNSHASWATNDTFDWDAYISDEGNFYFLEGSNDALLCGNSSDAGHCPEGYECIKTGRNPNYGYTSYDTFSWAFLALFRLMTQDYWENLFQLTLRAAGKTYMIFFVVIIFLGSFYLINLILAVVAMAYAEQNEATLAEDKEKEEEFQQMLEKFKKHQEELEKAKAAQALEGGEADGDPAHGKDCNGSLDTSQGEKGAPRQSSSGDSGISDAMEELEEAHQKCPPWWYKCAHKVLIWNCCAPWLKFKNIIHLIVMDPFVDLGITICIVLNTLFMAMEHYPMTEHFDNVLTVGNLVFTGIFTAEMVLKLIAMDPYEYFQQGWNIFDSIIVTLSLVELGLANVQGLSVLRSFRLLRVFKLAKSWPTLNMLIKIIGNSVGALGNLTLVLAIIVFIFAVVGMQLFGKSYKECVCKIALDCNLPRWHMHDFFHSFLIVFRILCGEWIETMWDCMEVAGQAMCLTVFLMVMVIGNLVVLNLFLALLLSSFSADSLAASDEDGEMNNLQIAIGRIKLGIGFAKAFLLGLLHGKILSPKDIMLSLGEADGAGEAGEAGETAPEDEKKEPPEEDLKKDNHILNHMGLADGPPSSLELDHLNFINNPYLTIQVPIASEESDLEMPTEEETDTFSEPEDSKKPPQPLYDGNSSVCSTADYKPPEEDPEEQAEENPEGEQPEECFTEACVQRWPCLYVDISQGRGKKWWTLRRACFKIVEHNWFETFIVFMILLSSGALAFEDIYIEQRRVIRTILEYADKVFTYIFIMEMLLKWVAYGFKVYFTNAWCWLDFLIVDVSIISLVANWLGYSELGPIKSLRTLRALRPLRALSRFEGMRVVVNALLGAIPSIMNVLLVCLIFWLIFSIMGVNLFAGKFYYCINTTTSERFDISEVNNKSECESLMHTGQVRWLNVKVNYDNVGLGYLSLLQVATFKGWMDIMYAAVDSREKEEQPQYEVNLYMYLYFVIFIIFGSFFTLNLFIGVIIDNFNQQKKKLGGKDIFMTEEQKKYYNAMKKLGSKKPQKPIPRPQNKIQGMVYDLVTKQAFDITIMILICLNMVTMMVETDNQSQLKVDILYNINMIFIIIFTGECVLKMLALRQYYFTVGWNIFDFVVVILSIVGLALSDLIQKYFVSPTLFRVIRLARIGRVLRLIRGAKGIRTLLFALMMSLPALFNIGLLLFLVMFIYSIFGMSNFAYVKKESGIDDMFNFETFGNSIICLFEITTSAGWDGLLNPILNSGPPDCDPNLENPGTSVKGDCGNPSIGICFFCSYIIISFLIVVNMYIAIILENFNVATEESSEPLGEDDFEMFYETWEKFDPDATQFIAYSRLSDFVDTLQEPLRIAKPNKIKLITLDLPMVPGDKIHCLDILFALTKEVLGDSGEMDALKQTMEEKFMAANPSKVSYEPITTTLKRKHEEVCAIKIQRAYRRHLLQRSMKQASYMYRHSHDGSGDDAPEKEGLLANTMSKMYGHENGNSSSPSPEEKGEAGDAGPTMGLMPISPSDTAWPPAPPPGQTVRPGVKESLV

| SMILES | IC50 (hNav1.7 [1]) | IC50 (hNav1.5 [2]) | IC50 (hNav1.4 [3]) | Nav1.4/Nav1.7 (hNav1.4 [3]) | IC50 (hNav1.3) | IC50 (hNav1.7 [4]) | IC50 (hNav1.4 [5]) | Nav1.4/Nav1.7 (hNav1.4 [5]) | IC50 (hNav1.5 [6]) |
| --- | --- | --- | --- | --- | --- | --- | --- | --- | --- |
| CC[C@H](C)[C@H](NC(=O)[C@@H](NC(=O)[C@H](CCCCN)NC(=O)[C@H](CCCNC(=N)N)NC(=O)[C@@H]1CSSC[C@@H]2NC(=O)[C@H](C)NC(=O)[C@H](CCCNC(=N)N)NC(=O)[C@H](CCCCN)NC(=O)[C@H](CO)NC(=O)[C@H](CC(=O)O)NC(=O)[C@@H]3CSSC[C@H](NC(=O)CNC(=O)[C@H](CC(C)C)NC(=O)CNC(=O)[C@H](CCC(=O)O)NC(=O)[C@H](CSSC[C@H](NC(=O)[C@@H](N)Cc4ccc(O)cc4)C(=O)N[C@@H](CCC(N)=O)C(=O)N[C@@H](CCCCN)C(=O)N[C@@H](Cc4c[nH]c5ccccc45)C(=O)N[C@@H](CCSC)C(=O)N[C@@H](Cc4c[nH]c5ccccc45)C(=O)N[C@@H]([C@@H](C)O)C(=O)N3)NC2=O)C(=O)N[C@@H](CCCCN)C(=O)N[C@@H](CC(C)C)C(=O)N[C@@H](Cc2c[nH]c3ccccc23)C(=O)N1)[C@@H](C)CC)C(N)=O [compound 121] | 60 nM | 9800 nM | 1900 nM | 29 | 980 nM | 7.8 nM | 197 nM | 25 | 14100 nM |
| CC[C@H](C)[C@H](NC(=O)[C@@H](NC(=O)[C@H](CCCCN)NC(=O)[C@H](CCCNC(=N)N)NC(=O)[C@@H]1CSSC[C@@H]2NC(=O)[C@H](C)NC(=O)[C@H](CCCNC(=N)N)NC(=O)[C@H](CCCCN)NC(=O)[C@H](CO)NC(=O)[C@H](CC(=O)O)NC(=O)[C@@H]3CSSC[C@H](NC(=O)[C@H](Cc4ccc(O)cc4)NC(=O)[C@H](CC(C)C)NC(=O)CNC(=O)[C@H](CCC(=O)O)NC(=O)[C@H](CSSC[C@H](NC(=O)[C@@H](N)Cc4ccc(O)cc4)C(=O)N[C@@H](CCC(N)=O)C(=O)N[C@@H](CCCCN)C(=O)N[C@@H](Cc4c[nH]c5ccccc45)C(=O)N[C@@H](CCSC)C(=O)N[C@@H](Cc4c[nH]c5ccccc45)C(=O)N[C@@H]([C@@H](C)O)C(=O)N3)NC2=O)C(=O)N[C@@H](CCCCN)C(=O)N[C@@H](CC(C)C)C(=O)N[C@@H](Cc2c[nH]c3ccccc23)C(=O)N1)[C@@H](C)CC)C(N)=O [compound 124] | 90 nM | 10800 nM | 4000 nM | 43 | > 5000 nM | 5.9 nM | 1570 nM |  | > 10000 nM |
| CC[C@H](C)[C@H](NC(=O)[C@@H](NC(=O)[C@H](CCCCN)NC(=O)[C@H](CCCNC(=N)N)NC(=O)[C@@H]1CSSC[C@@H]2NC(=O)[C@H](C)NC(=O)[C@H](CCCNC(=N)N)NC(=O)[C@H](CCCCN)NC(=O)[C@H](CO)NC(=O)[C@H](CC(=O)O)NC(=O)[C@@H]3CSSC[C@H](NC(=O)[C@H](CCC(=O)O)NC(=O)[C@H](CC(C)C)NC(=O)CNC(=O)[C@H](CCC(=O)O)NC(=O)[C@H](CSSC[C@H](NC(=O)[C@@H](N)Cc4ccc(O)cc4)C(=O)N[C@@H](CCC(N)=O)C(=O)N[C@@H](CCCCN)C(=O)N[C@@H](Cc4c[nH]c5ccccc45)C(=O)N[C@@H](CCSC)C(=O)N[C@@H](Cc4c[nH]c5ccccc45)C(=O)N[C@@H]([C@@H](C)O)C(=O)N3)NC2=O)C(=O)N[C@@H](CCCCN)C(=O)N[C@@H](CC(C)C)C(=O)N[C@@H](Cc2c[nH]c3ccccc23)C(=O)N1)C(C)C)C(N)=O [compound 133] | 80 nM | 12000 nM | 4000 nM | 51 | 4850 nM | 4.1 nM | 1310 nM | 320 | 5500 nM |
| CC[C@H](C)[C@H](NC(=O)[C@H](CCCNC(N)=O)NC(=O)[C@H](CCCCN)NC(=O)[C@H](CCCNC(=N)N)NC(=O)[C@@H]1CSSC[C@@H]2NC(=O)[C@H](C)NC(=O)[C@H](CCCNC(=N)N)NC(=O)[C@H](CCCCN)NC(=O)[C@H](CO)NC(=O)[C@H](CC(=O)O)NC(=O)[C@@H]3CSSC[C@H](NC(=O)[C@H](CCC(=O)O)NC(=O)[C@H](CC(C)C)NC(=O)CNC(=O)[C@H](CCC(=O)O)NC(=O)[C@H](CSSC[C@H](NC(=O)[C@@H](N)Cc4ccc(O)cc4)C(=O)N[C@@H](CCC(N)=O)C(=O)N[C@@H](CCCCN)C(=O)N[C@@H](Cc4c[nH]c5ccccc45)C(=O)N[C@@H](CCSC)C(=O)N[C@@H](Cc4c[nH]c5ccccc45)C(=O)N[C@@H]([C@@H](C)O)C(=O)N3)NC2=O)C(=O)N[C@@H](CCCCN)C(=O)N[C@@H](CC(C)C)C(=O)N[C@@H](Cc2c[nH]c3ccccc23)C(=O)N1)C(N)=O [compound 135] | 110 nM | 12000 nM | > 5000 nM | 46 | > 5000 nM | 5.6 nM | 6020 nM |  | > 10000 nM |
| CCC[C@H](NC(=O)[C@H](CCCCN)NC(=O)[C@H](CCCNC(=N)N)NC(=O)[C@@H]1CSSC[C@@H]2NC(=O)[C@H](C)NC(=O)[C@H](CCCNC(=N)N)NC(=O)[C@H](CCCCN)NC(=O)[C@H](CO)NC(=O)[C@H](CC(=O)O)NC(=O)[C@@H]3CSSC[C@H](NC(=O)[C@H](CCC(=O)O)NC(=O)[C@H](CC(C)C)NC(=O)CNC(=O)[C@H](CCC(=O)O)NC(=O)[C@H](CSSC[C@H](NC(=O)[C@@H](N)Cc4ccc(O)cc4)C(=O)N[C@@H](CCC(N)=O)C(=O)N[C@@H](CCCCN)C(=O)N[C@@H](Cc4c[nH]c5ccccc45)C(=O)N[C@@H](CCSC)C(=O)N[C@@H](Cc4c[nH]c5ccccc45)C(=O)N[C@@H]([C@@H](C)O)C(=O)N3)NC2=O)C(=O)N[C@@H](CCCCN)C(=O)N[C@@H](CC(C)C)C(=O)N[C@@H](Cc2c[nH]c3ccccc23)C(=O)N1)C(=O)N[C@H](C(N)=O)[C@@H](C)CC [compound 136] | 80 nM and 150 nM | 8900 nM and 15800 nM | > 5000 nM | 66 and 34 | > 5000 nM | 12.8 nM | 5190 nM |  | 7820 nM |
| CC[C@H](C)[C@H](NC(=O)[C@H](Cc1ccc(O)cc1)NC(=O)[C@H](CCCCN)NC(=O)[C@H](CCCNC(=N)N)NC(=O)[C@@H]1CSSC[C@@H]2NC(=O)[C@H](C)NC(=O)[C@H](CCCNC(=N)N)NC(=O)[C@H](CCCCN)NC(=O)[C@H](CO)NC(=O)[C@H](CC(=O)O)NC(=O)[C@@H]3CSSC[C@H](NC(=O)[C@H](CCC(=O)O)NC(=O)[C@H](CC(C)C)NC(=O)CNC(=O)[C@H](CCC(=O)O)NC(=O)[C@H](CSSC[C@H](NC(=O)[C@@H](N)Cc4ccc(O)cc4)C(=O)N[C@@H](CCC(N)=O)C(=O)N[C@@H](CCCCN)C(=O)N[C@@H](Cc4c[nH]c5ccccc45)C(=O)N[C@@H](CCSC)C(=O)N[C@@H](Cc4c[nH]c5ccccc45)C(=O)N[C@@H]([C@@H](C)O)C(=O)N3)NC2=O)C(=O)N[C@@H](CCCCN)C(=O)N[C@@H](CC(C)C)C(=O)N[C@@H](Cc2c[nH]c3ccccc23)C(=O)N1)C(N)=O [compound 137] | 90 nM | 8000 nM | > 3500 nM | 41 | 2010 nM | 0.9 nM | 1270 nM |  | 11400 nM |
| CC[C@H](C)[C@H](NC(=O)[C@H](Cc1ccc(O)cc1)NC(=O)[C@H](CCCCN)NC(=O)[C@H](CCCNC(=N)N)NC(=O)[C@@H]1CSSC[C@@H]2NC(=O)[C@H](C)NC(=O)[C@H](CCCNC(=N)N)NC(=O)[C@H](CCCCN)NC(=O)[C@H](CO)NC(=O)[C@H](CC(=O)O)NC(=O)[C@@H]3CSSC[C@H](NC(=O)[C@H](CCC(=O)O)NC(=O)[C@H](CC(C)C)NC(=O)CNC(=O)[C@H](CCC(=O)O)NC(=O)[C@H](CSSC[C@H](NC(=O)[C@@H](N)Cc4ccc(O)cc4)C(=O)N[C@@H](CCC(N)=O)C(=O)N[C@@H](CCCCN)C(=O)N[C@@H](Cc4ccc(I)cc4)C(=O)N[C@@H](CCSC)C(=O)N[C@@H](Cc4c[nH]c5ccccc45)C(=O)N[C@@H]([C@@H](C)O)C(=O)N3)NC2=O)C(=O)N[C@@H](CCCCN)C(=O)N[C@@H](CC(C)C)C(=O)N[C@@H](Cc2c[nH]c3ccccc23)C(=O)N1)C(N)=O [compound 192] | 110 nM | > 5000 nM | 3400 nM | 30 | 1300 nM | 2.2 nM | 172 nM | 78 | > 1000 nM |
| CC[C@H](C)[C@H](NC(=O)[C@H](Cc1ccc(O)cc1)NC(=O)[C@H](CCCCN)NC(=O)[C@H](CCCNC(=N)N)NC(=O)[C@@H]1CSSC[C@@H]2NC(=O)[C@H](C)NC(=O)[C@H](CCCNC(=N)N)NC(=O)[C@H](CCCCN)NC(=O)[C@H](CO)NC(=O)[C@H](CC(=O)O)NC(=O)[C@@H]3CSSC[C@H](NC(=O)[C@H](CCC(=O)O)NC(=O)[C@H](CC(C)C)NC(=O)CNC(=O)[C@H](CCC(=O)O)NC(=O)[C@H](CSSC[C@H](NC(=O)[C@@H](N)Cc4ccc(O)cc4)C(=O)N[C@@H](CCC(N)=O)C(=O)N[C@@H](CCCCN)C(=O)N[C@@H](Cc4ccccc4)C(=O)N[C@@H](CCSC)C(=O)N[C@@H](Cc4c[nH]c5ccccc45)C(=O)N[C@@H]([C@@H](C)O)C(=O)N3)NC2=O)C(=O)N[C@@H](CCCCN)C(=O)N[C@@H](CC(C)C)C(=O)N[C@@H](Cc2c[nH]c3ccccc23)C(=O)N1)C(N)=O [compound 193] | 160 nM and 230 nM | > 5000 nM | > 5000 nM |  | > 5000 nM | 4.6 nM | 1000 nM |  | > 1000 nM |
